Results published in ChEMBL document CHEMBL3046607, “Synthesis and Herbicidal Activity of New 1-Alkyl-3-aryloxypyrazole-4-carboxamide Derivatives” (J Pestic Sci, 2004).
Calls of active or inactive are those of the source. No cut-off for these calls is given here.

How the values were obtained:
Rotala indica [1] = test: Pre-emergence herbicidal activity against Rotala indica assessed as bleaching of stem/leaf parts; assay type: functional, organism-based
Pontederia vaginalis [2] = test: Pre-emergence herbicidal activity against Monochoria vaginalis assessed as bleaching of stem/leaf parts; assay type: functional, organism-based
Cyperus difformis [3] = test: Pre-emergence herbicidal activity against Cyperus difformis at 100 g a.i/ha measured after 14 days; assay type: functional, organism-based
Rotala indica [4] = test: Pre-emergence herbicidal activity against Rotala indica at 100 g a.i/ha measured after 14 days; assay type: functional, organism-based
Pontederia vaginalis [5] = test: Pre-emergence herbicidal activity against Monochoria vaginalis at 100 g a.i/ha measured after 14 days; assay type: functional, organism-based
Lindernia procumbens [6] = test: Post-emergence herbicidal activity against Lindernia procumbens assessed as bleaching of stem/leaf parts; assay type: functional, organism-based; note: test concentration or dose not given here
Rotala indica [7] = test: Post-emergence herbicidal activity against Rotala indica assessed as bleaching of stem/leaf parts; assay type: functional, organism-based
Elatine triandra [8] = test: Post-emergence herbicidal activity against Elatine triandra assessed as bleaching of stem/leaf parts; assay type: functional, organism-based; note: test concentration or dose not given here
Lindernia procumbens [9] = test: Pre-emergence herbicidal activity against Lindernia procumbens at 100 g a.i/ha measured after 14 days; assay type: functional, organism-based
[10] = tested on: Schoenoplectiella juncoides; test: Post-emergence herbicidal activity against Schoenoplectiella juncoides assessed as bleaching of stem/leaf parts; assay type: functional, organism-based; note: test concentration or dose not given here
Cyperus difformis [11] = test: Post-emergence herbicidal activity against Cyperus difformis assessed as bleaching of stem/leaf parts; assay type: functional, organism-based; note: test concentration or dose not given here
Elatine triandra [12] = test: Pre-emergence herbicidal activity against Elatine triandra assessed as bleaching of stem/leaf parts; assay type: functional, organism-based
Cyperus difformis [13] = test: Pre-emergence herbicidal activity against Cyperus difformis assessed as bleaching of stem/leaf parts; assay type: functional, organism-based
Pontederia vaginalis [14] = test: Post-emergence herbicidal activity against Monochoria vaginalis assessed as bleaching of stem/leaf parts; assay type: functional, organism-based
[15] = tested on: Schoenoplectiella juncoides; test: Pre-emergence herbicidal activity against Schoenoplectiella juncoides at 100 g a.i/ha measured after 14 days; assay type: functional, organism-based
Lindernia procumbens [16] = test: Pre-emergence herbicidal activity against Lindernia procumbens assessed as bleaching of stem/leaf parts; assay type: functional, organism-based
Echinochloa oryzicola [17] = test: Pre-emergence herbicidal activity against Echinochloa oryzicola assessed as bleaching of stem/leaf parts; assay type: functional, organism-based
Ammannia multiflora [18] = test: Pre-emergence herbicidal activity against Ammannia multiflora assessed as bleaching of stem/leaf parts; assay type: functional, organism-based
Ammannia multiflora [19] = test: Pre-emergence herbicidal activity against Ammannia multiflora at 100 g a.i/ha measured after 14 days; assay type: functional, organism-based
Echinochloa oryzicola [20] = test: Post-emergence herbicidal activity against Echinochloa oryzicola assessed as bleaching of stem/leaf parts; assay type: functional, organism-based
[21] = tested on: Schoenoplectiella juncoides; test: Pre-emergence herbicidal activity against Schoenoplectiella juncoides assessed as bleaching of stem/leaf parts; assay type: functional, organism-based
Elatine triandra [22] = test: Pre-emergence herbicidal activity against Elatine triandra at 100 g a.i/ha measured after 14 days; assay type: functional, organism-based
Oryza sativa [23] = test: Phytotoxicity against Oryza sativa cv. Koshihikari (rice) at 100 g a.i/ha measured after 14 days; assay type: organism-based; settings: in vivo, 336 h
Ammannia multiflora [24] = test: Post-emergence herbicidal activity against Ammannia multiflora assessed as bleaching of stem/leaf parts; assay type: functional, organism-based
Echinochloa oryzicola [25] = test: Pre-emergence herbicidal activity against Echinochloa oryzicola at 100 g a.i/ha measured after 14 days; assay type: functional, organism-based
Ammannia multiflora [26] = test: Pre-emergence herbicidal activity against Ammannia multiflora at 500 g a.i/ha measured after 14 days; assay type: functional, organism-based
Rotala indica [27] = test: Pre-emergence herbicidal activity against Rotala indica at 500 g a.i/ha measured after 14 days; assay type: functional, organism-based
[28] = tested on: Schoenoplectiella juncoides; test: Pre-emergence herbicidal activity against Schoenoplectiella juncoides at 500 g a.i/ha measured after 14 days; assay type: functional, organism-based
Cyperus difformis [29] = test: Pre-emergence herbicidal activity against Cyperus difformis at 500 g a.i/ha measured after 14 days; assay type: functional, organism-based
Pontederia vaginalis [30] = test: Pre-emergence herbicidal activity against Monochoria vaginalis at 500 g a.i/ha measured after 14 days; assay type: functional, organism-based
Echinochloa oryzicola [31] = test: Pre-emergence herbicidal activity against Echinochloa oryzicola at 500 g a.i/ha measured after 14 days; assay type: functional, organism-based
Lindernia procumbens [32] = test: Pre-emergence herbicidal activity against Lindernia procumbens at 500 g a.i/ha measured after 14 days; assay type: functional, organism-based
Elatine triandra [33] = test: Pre-emergence herbicidal activity against Elatine triandra at 500 g a.i/ha measured after 14 days; assay type: functional, organism-based
Oryza sativa [34] = test: Phytotoxicity against Oryza sativa cv. Koshihikari (rice) at 500 g a.i/ha measured after 14 days; assay type: organism-based; settings: in vivo, 336 h

Q: For `COc1ccc(NC(=O)c2cn(C)nc2Oc2cccc(C(F)(F)F)c2)cc1OC`, which Activity (Rotala indica [1]) is on record?
A: Active

Q: And the Activity (Pontederia vaginalis [2])?
A: Active

Q: And the Activity (Cyperus difformis [3])?
A: inactive

Q: And the Activity (Rotala indica [4])?
A: inactive

Q: What about the Activity (Pontederia vaginalis [5]) of the same compound?
A: inactive

Q: What about the Activity (Lindernia procumbens [6]) of the same compound?
A: Active

Q: And the Activity (Rotala indica [7])?
A: Active

Q: What about the Activity (Elatine triandra [8]) of the same compound?
A: Active

Q: What about the Activity (Lindernia procumbens [9]) of the same compound?
A: inactive

Q: And the Activity [10]?
A: Active

Q: What about the Activity (Cyperus difformis [11]) of the same compound?
A: Active

Q: What about the Activity (Elatine triandra [12]) of the same compound?
A: Active

Q: What about the Activity (Cyperus difformis [13]) of the same compound?
A: Active

Q: What about the Activity (Pontederia vaginalis [14]) of the same compound?
A: Active

Q: And the Activity [15]?
A: inactive

Q: What about the Activity (Lindernia procumbens [16]) of the same compound?
A: Active

Q: And the Activity (Echinochloa oryzicola [17])?
A: Active

Q: And the Activity (Ammannia multiflora [18])?
A: Active

Q: What about the Activity (Ammannia multiflora [19]) of the same compound?
A: inactive

Q: And the Activity (Echinochloa oryzicola [20])?
A: Active

Q: And the Activity [21]?
A: Active

Q: And the Activity (Elatine triandra [22])?
A: inactive

Q: And the Activity (Oryza sativa [23])?
A: Non-toxic

Q: What about the Activity (Ammannia multiflora [24]) of the same compound?
A: Active

Q: What about the Activity (Echinochloa oryzicola [25]) of the same compound?
A: inactive

Q: With `Cn1cc(C(=O)Nc2cccc(S(C)(=O)=O)c2)c(Oc2cccc(C(F)(F)F)c2)n1` as the compound, how does the Activity (Rotala indica [1]) read?
A: Active

Q: And the Activity (Pontederia vaginalis [2])?
A: Active

Q: What about the Activity (Cyperus difformis [3]) of the same compound?
A: inactive

Q: And the Activity (Rotala indica [4])?
A: inactive

Q: And the Activity (Pontederia vaginalis [5])?
A: inactive

Q: And the Activity (Lindernia procumbens [6])?
A: Active

Q: And the Activity (Rotala indica [7])?
A: Active

Q: What about the Activity (Elatine triandra [8]) of the same compound?
A: Active

Q: What about the Activity (Lindernia procumbens [9]) of the same compound?
A: inactive

Q: And the Activity [10]?
A: Active

Q: And the Activity (Cyperus difformis [11])?
A: Active

Q: And the Activity (Elatine triandra [12])?
A: Active

Q: What about the Activity (Cyperus difformis [13]) of the same compound?
A: Active

Q: What about the Activity (Pontederia vaginalis [14]) of the same compound?
A: Active

Q: And the Activity [15]?
A: inactive

Q: What about the Activity (Lindernia procumbens [16]) of the same compound?
A: Active

Q: And the Activity (Echinochloa oryzicola [17])?
A: Active

Q: What about the Activity (Ammannia multiflora [18]) of the same compound?
A: Active

Q: What about the Activity (Ammannia multiflora [19]) of the same compound?
A: inactive

Q: What about the Activity (Echinochloa oryzicola [20]) of the same compound?
A: Active

Q: And the Activity [21]?
A: Active

Q: And the Activity (Elatine triandra [22])?
A: inactive

Q: What about the Activity (Oryza sativa [23]) of the same compound?
A: Non-toxic

Q: What about the Activity (Ammannia multiflora [24]) of the same compound?
A: Active

Q: And the Activity (Echinochloa oryzicola [25])?
A: inactive

Q: Which results are given for `Cn1cc(C(=O)Nc2ccc(C(C)(C)C)cc2)c(Oc2cccc(C(F)(F)F)c2)n1`?
A: Activity (Rotala indica [1]): Active; Activity (Pontederia vaginalis [2]): Active; Activity (Cyperus difformis [3]): inactive; Activity (Rotala indica [4]): inactive; Activity (Pontederia vaginalis [5]): inactive; Activity (Lindernia procumbens [6]): Active; Activity (Rotala indica [7]): Active; Activity (Elatine triandra [8]): Active; Activity (Lindernia procumbens [9]): inactive; Activity [10]: Active; Activity (Cyperus difformis [11]): Active; Activity (Elatine triandra [12]): Active; Activity (Cyperus difformis [13]): Active; Activity (Pontederia vaginalis [14]): Active; Activity [15]: inactive; Activity (Lindernia procumbens [16]): Active; Activity (Echinochloa oryzicola [17]): Active; Activity (Ammannia multiflora [18]): Active; Activity (Ammannia multiflora [19]): inactive; Activity (Echinochloa oryzicola [20]): Active; Activity [21]: Active; Activity (Elatine triandra [22]): inactive; Activity (Oryza sativa [23]): Non-toxic; Activity (Ammannia multiflora [24]): Active; Activity (Echinochloa oryzicola [25]): inactive

Q: What does the source list for `CCONC(=O)c1cn(C)nc1Oc1cccc(C(F)(F)F)c1`?
A: Activity (Rotala indica [1]): Active; Activity (Pontederia vaginalis [2]): Active; Activity (Cyperus difformis [3]): inactive; Activity (Rotala indica [4]): inactive; Activity (Pontederia vaginalis [5]): inactive; Activity (Lindernia procumbens [6]): Active; Activity (Ammannia multiflora [26]): Active; Activity (Rotala indica [7]): Active; Activity (Rotala indica [27]): Active; Activity (Elatine triandra [8]): Active; Activity (Lindernia procumbens [9]): inactive; Activity [28]: Active; Activity [10]: Active; Activity (Cyperus difformis [29]): Active; Activity (Cyperus difformis [11]): Active; Activity (Pontederia vaginalis [30]): Active; Activity (Elatine triandra [12]): Active; Activity (Cyperus difformis [13]): Active; Activity (Pontederia vaginalis [14]): Active; Activity [15]: inactive; Activity (Lindernia procumbens [16]): Active; Activity (Echinochloa oryzicola [31]): Active; Activity (Echinochloa oryzicola [17]): Active; Activity (Ammannia multiflora [18]): Active; Activity (Ammannia multiflora [19]): inactive; Activity (Echinochloa oryzicola [20]): Active; Activity [21]: Active; Activity (Elatine triandra [22]): inactive; Activity (Lindernia procumbens [32]): Active; Activity (Elatine triandra [33]): Active; Activity (Oryza sativa [34]): Toxic; Activity (Oryza sativa [23]): Non-toxic; Activity (Ammannia multiflora [24]): Active; Activity (Echinochloa oryzicola [25]): Active
